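Method: 48-hour compound exposure of cells in 96-well plates, five concentrations, linear interpolation of endpoints. The concentration for 50% growth inhibition is given as GI50.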 Calls of active or inactive are those of the source. Cut-off read from the data, not from the text of the source: active = GI50 up to about 1.1 µM and inactive = higher.
What was measured:
Test in all cases: growth of human tumour cells (NCI), 48 h
[1] = system: KM12
[2] = system: ACHN
[3] = system: CCRF-CEM
[4] = system: MOLT-4
[5] = system: SW-620
[6] = system: NCI-H23
[7] = system: Malme-3M
[8] = system: OVCAR-5
[9] = system: HOP-62
[10] = system: SK-MEL-2
[11] = system: SN12C
[12] = system: NCI-H460
[13] = system: RXF 393
[14] = system: TK-10
[15] = system: UO-31
[16] = system: SK-MEL-28
[17] = system: OVCAR-8
[18] = system: UACC-62
[19] = system: SNB-75

Measured: GI50

COC(=O)c1sc(=O)sc1SCc1cccc(CSc2sc(=O)sc2C(=O)OC)c1
inactive: [1] > 100 µM | [2] 30 µM | [3] 50.5 µM | [4] 47.6 µM | [5] > 100 µM | [6] 52.6 µM | [7] 18.7 µM | [8] > 100 µM | [9] 16 µM | [10] 47.9 µM | [11] 39.7 µM | [12] 35.1 µM | [13] 26 µM | [14] 23.2 µM | [15] 64.6 µM | [16] 55.8 µM | [17] 37.2 µM | [18] 33.7 µM

OCC(O)COCn1nncc1Cn1ncc2c(SCc3ccccc3)ncnc21 (configuration not stated)
inactive: [1] > 100 µM | [2] > 100 µM | [3] > 100 µM | [5] > 100 µM | [6] > 100 µM | [8] > 100 µM | [9] > 100 µM | [10] > 100 µM | [11] > 100 µM | [14] > 100 µM | [15] > 100 µM | [16] > 100 µM | [17] > 100 µM | [18] > 100 µM

CCCCCCCCCCCCCCCCCCNC(=S)N/C=C1\C(=O)Nc2ccccc2C1=O
inactive: [1] 16.1 µM | [2] 16.4 µM | [4] 12.7 µM | [5] 19.5 µM | [6] 18.9 µM | [8] 15.4 µM | [9] 15.6 µM | [10] 21.4 µM | [19] 13.2 µM | [11] 22.4 µM | [12] 16.1 µM | [13] 22.2 µM | [14] 23.3 µM | [15] 15.5 µM | [16] 16.5 µM | [17] 15.6 µM

O=C(O)c1cc(NC2=C(Cl)C(=O)c3c(O)ccc(O)c3C2=O)ccc1O
inactive: [1] > 10 µM | [2] > 10 µM | [3] > 10 µM | [4] > 10 µM | [5] > 10 µM | [6] > 10 µM | [7] > 10 µM | [8] > 10 µM | [9] > 10 µM | [19] > 10 µM | [11] > 10 µM | [12] > 10 µM | [14] > 10 µM | [15] > 10 µM | [16] > 10 µM | [17] > 10 µM | [18] > 10 µM

CC(C)(C)OC(=O)[C@@H]1ON2O[C@H](OC3CCCC3(c3ccccc3)c3ccccc3)C[C@H]3OC(=O)[C@@H]1[C@H]32 (some centres not stated)
inactive: [1] 36.1 µM | [2] > 100 µM | [3] > 100 µM | [4] > 10 µM | [5] 85.7 µM | [6] 46.5 µM | [8] > 100 µM | [9] 61.1 µM | [10] 14.8 µM | [19] 25.8 µM | [11] 58.5 µM | [12] 54.3 µM | [13] 25.7 µM | [14] > 100 µM | [15] 71.9 µM | [16] 95.1 µM | [18] 98.9 µM

From ChEMBL document CHEMBL1201862, “PubChem BioAssay data set” (2004)
